Measurements reported in PMC10308197 (Cell Insight, 2023).
Blank lines part the entries; values can stand above or below the molecule they belong to.

Columns and labels:
[1] = target: T1, METTL9 (Homo sapiens, UniProt Q9H1A3); format: biochemical; conditions: mono-methylated product monitored, N = 3
Target sequence in this assay (Q9H1A3 19-318): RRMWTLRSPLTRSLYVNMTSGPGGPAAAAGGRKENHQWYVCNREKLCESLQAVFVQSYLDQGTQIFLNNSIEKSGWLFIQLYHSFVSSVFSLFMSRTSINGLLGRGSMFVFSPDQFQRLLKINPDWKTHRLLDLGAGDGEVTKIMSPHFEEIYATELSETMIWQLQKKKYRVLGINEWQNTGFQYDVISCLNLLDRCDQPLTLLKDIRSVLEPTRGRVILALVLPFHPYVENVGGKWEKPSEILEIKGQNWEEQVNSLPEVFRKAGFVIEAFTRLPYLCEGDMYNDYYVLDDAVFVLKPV

[2] = target: T1, METTL9; assay: Isothermal titration calorimetry; format: binding
Target sequence in this assay (Q9H1A3 whole entry): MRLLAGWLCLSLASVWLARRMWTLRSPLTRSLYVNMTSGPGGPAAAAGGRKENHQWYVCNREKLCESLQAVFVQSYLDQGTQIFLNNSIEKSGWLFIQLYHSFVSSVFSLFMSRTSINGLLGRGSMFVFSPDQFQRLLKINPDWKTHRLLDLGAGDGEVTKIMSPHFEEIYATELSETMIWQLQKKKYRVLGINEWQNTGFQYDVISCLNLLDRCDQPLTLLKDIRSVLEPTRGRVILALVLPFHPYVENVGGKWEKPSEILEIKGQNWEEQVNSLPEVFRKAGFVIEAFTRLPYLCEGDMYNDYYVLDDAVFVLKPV

[3] = tested on: METTL9 mutants; assay: ITC of mutant METTL9 titrated with SAH; format: binding, human; conditions: METTL9 T173A, T115A and N118A (range over the three mutants)
[4] = target: METTL9 D213N (human, UniProt Q9H1A3 19-318, D213N); assay: ITC
Chain of METTL9 D213N (Q9H1A3 19-318 D213N): as the sequence (Q9H1A3 19-318) above, with D195N counted along it

[5] = target: METTL9 T115A (human, UniProt Q9H1A3 19-318, T115A); assay: ITC
Chain of METTL9 T115A (Q9H1A3 19-318 T115A): as the sequence (Q9H1A3 19-318) above, with T97A counted along it

[6] = target: METTL9 D213S (human, UniProt Q9H1A3 19-318, D213S); assay: ITC
Chain of METTL9 D213S (Q9H1A3 19-318 D213S): as the sequence (Q9H1A3 19-318) above, with D195S counted along it

[7] = target: T115A, V241G, and C297A; assay: ITC
[8] = target: D213S or D213N; assay: ITC

Molecule: O=C(O)CN(CCN(CC(=O)O)CC(=O)O)CC(=O)O [EDTA, ethylenediaminetetraacetic acid]
effect on METTL9 enzymatic activity towards SLC39A7_55-70 in presence of zinc ([1]; zinc ions removed by EDTA): completely restored

Molecule: Ac-HTHESWIHG-NH2 [SLC39A7_66-74]
Kd [2]: 6.7 µM

Further lines, results first:

Kd [2]: 3.1 µM
decrease in SAH binding relative to wild type [3]: 2–10 fold
Molecule: Nc1ncnc2c1ncn2[C@@H]1O[C@H](CSCC[C@H](N)C(=O)O)[C@@H](O)[C@H]1O [SAH, S-adenosylhomocysteine]

Kd [2]: 1.6 µM
Molecule: C[S+](CC[C@H](N)C(=O)[O-])C[C@H]1O[C@@H](n2cnc3c(N)ncnc32)[C@H](O)[C@@H]1O (some centres unmarked) [SAM, S-adenosylmethionine]

effect on histidine methylation of SLC39A7_55-70 by METTL9 ([1]; 0.5 mM ZnCl2 added): substantially inhibited
Molecule: [Cl-].[Cl-].[Zn+2] [ZnCl2]

binding result [4]: binds
binding result [5]: binds
binding result [6]: binds
fold reduction of binding against wild-type METTL9 [7]: 6 to 10 fold
fold weakening of binding against wild-type METTL9 [8]: 4 to 6 fold
Molecule: HTHESIWHG [SLC39A7_(66-74) peptide]
